Laboratory results taken from patent publication US20030073850A1, “4-Imidazole derivatives of benzyl and restricted benzyl sulfonamides, sulfamides, ureas, carbamates, and amides and their use” (priority 1998, published 2003).

Assays:
[1] = biological target: T1, α1A (rabbit urethra) (Oryctolagus cuniculus, UniProt O02824); assay: Agonist tissue response, contraction of rabbit urethra; format: biochemical; conditions: values without asterisk, read-out: Agonist Tissue Response (pD2) α1A (rab ureth) (converted)
T1 construct: tested for α1A functional activity using rabbit urethra; from tissue; host or cells: rabbit urethra (female New Zealand white rabbits)
T1 sequence (O02824 1-466): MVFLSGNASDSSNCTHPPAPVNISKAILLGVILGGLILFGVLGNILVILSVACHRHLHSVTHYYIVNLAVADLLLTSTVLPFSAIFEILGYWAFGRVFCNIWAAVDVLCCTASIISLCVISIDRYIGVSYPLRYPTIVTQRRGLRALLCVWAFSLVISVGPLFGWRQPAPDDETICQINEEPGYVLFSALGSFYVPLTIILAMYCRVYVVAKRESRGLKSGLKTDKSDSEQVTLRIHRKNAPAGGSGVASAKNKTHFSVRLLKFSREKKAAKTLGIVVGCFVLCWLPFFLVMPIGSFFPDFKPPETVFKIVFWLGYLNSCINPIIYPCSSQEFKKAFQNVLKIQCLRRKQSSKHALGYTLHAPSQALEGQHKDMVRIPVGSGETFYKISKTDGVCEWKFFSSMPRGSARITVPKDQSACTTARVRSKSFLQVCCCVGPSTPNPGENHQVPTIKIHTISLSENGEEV
Description: Most of the compounds were tested for α1A functional activity using rabbit urethra as follows. Female New Zealand white rabbits (2.0-3.5 Kg) were sedated with CO2 and decapitated. […] Subsequent experimental conditions were as described above for the other tissues. Agonist concentration response curves were cumulative except for the vas deferens assay in which the transient response made such measurements impractical.

[2] = biological target: T2, α1B (rat spleen) (Rattus norvegicus, UniProt P15823); assay: Agonist tissue response, contraction of rat spleen; format: biochemical; conditions: read-out: Agonist Tissue Response (pD2) α1B (rat spleen) (converted)
T2 construct: α1B (rat spleen) and α1D (rat aorta) receptors; from tissue; host or cells: rat spleen
T2 sequence (P15823 1-515): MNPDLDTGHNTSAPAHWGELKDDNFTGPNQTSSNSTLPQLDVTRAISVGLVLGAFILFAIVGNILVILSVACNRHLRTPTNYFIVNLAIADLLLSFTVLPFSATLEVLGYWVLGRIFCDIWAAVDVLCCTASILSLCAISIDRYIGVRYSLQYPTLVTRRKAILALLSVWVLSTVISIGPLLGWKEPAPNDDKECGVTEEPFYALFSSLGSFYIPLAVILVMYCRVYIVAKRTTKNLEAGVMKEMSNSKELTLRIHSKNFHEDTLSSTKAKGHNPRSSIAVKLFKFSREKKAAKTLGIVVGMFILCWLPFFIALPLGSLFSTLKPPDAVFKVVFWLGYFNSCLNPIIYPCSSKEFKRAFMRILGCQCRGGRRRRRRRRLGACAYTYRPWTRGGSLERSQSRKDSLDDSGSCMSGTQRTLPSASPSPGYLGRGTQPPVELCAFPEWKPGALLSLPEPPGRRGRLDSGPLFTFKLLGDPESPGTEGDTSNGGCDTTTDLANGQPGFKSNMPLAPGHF

[3] = biological target: T3, α1b (hamster receptor expressed in mouse fibroblasts) (Mesocricetus auratus, UniProt P18841); assay: Radioligand binding, [3H]-prazosin, α1b; conditions: hamster receptor expressed in mouse fibroblasts, [3H]-prazosin; read-out: Radioligand Binding Ki α1b (Hamster)
T3 construct: expressed in transfected cells; host or cells: mouse fibroblasts
T3 sequence (P18841 1-515): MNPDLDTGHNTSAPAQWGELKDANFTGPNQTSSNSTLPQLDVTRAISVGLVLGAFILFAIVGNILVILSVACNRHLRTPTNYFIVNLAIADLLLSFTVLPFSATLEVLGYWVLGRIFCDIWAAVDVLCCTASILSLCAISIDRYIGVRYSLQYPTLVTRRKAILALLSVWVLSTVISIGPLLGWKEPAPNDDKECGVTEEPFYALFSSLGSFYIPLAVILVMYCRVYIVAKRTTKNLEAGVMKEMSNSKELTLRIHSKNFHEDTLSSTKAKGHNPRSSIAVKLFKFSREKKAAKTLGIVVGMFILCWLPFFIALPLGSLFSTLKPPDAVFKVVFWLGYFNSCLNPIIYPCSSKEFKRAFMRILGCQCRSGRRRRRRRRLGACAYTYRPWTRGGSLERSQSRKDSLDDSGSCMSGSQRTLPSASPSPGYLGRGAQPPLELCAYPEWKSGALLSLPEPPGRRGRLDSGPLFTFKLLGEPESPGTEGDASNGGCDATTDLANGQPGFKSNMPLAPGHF
Method in brief: (§1)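 [3H]-prazosin radioligand displacement; α1A from rat submaxillary gland tissue, α1b hamster and α1d rat receptors each expressed in mouse fibroblasts.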

[4] = biological target: T4, α1A (rat submaxillary gland) (Rattus norvegicus, UniProt P43140); assay: Radioligand binding, [3H]-prazosin, α1A
T4 construct: α1A (rat submaxillary gland); from tissue; host or cells: rat submaxillary gland
T4 sequence (P43140 1-466): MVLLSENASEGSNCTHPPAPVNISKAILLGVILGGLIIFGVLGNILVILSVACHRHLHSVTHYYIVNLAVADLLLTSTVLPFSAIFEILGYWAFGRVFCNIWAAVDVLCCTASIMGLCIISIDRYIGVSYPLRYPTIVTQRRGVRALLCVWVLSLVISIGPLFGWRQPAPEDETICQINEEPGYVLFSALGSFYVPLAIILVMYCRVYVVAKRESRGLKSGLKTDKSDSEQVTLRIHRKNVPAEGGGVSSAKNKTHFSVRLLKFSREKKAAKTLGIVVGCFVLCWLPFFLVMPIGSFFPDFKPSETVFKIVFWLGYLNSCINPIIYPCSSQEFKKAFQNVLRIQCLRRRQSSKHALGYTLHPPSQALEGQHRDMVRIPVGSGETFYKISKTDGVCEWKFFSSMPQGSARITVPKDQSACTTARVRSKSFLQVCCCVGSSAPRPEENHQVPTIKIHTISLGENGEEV
Method in brief: as §1

EC50 [1]: 1.38 µM
EC50 [2]: 28.2 µM
Ki [3]: 10 µM
Ki [4]: 0.183 µM
Structure (SMILES): CCS(=O)(=O)Nc1cccc2c1OCCC2c1c[nH]cn1 (single isomer, unassigned; (+)) [Example 95, (+) N-[4-(1H-imidazol-4-yl)-3,4-dihydro-2H-chromen-8-yl]ethanesulfonamide]
